# Measurements reported in patent publication US20020115724A1, “Methods and agents for inhibiting protein aging” (priority 1985, published 2002).
# Where a name gives a salt, the structure may show the parent alone.
# What was measured:
# [1] = test system: bovine serum albumin; test: Formation of fluorescent advanced glycosylation end products in albumin incubated with glucose; type: biochemical; conditions: 200 mM agent, 6 mg/mL BSA, 200 mM glucose, 37° C., two-week incubation, vs control
# Method: To measure the ability of certain of the agents of the present invention to inhibit the production of advanced glycosylated end products in vitro, albumin and glucose were incubated together for two weeks in the presence of several test agents. Samples were taken at regular intervals for analysis. Advanced glycosylation end products were measured as appearance of fluorescent compounds, and early glycosylation products were measured by incorporation of radiolabeled glucose into albumin. Reaction conditions were as follows. […]
# After the incubation periods, samples were treated as follows. After dialysis to remove all unbound glucose, the amount of protein present was measured with a standard dye-binding assay. The amount of glucose which became bound to the albumin, a measure of early glycosylation products, was determined by precipitating albumin with trichloroacetic acid and measuring the radioactivity of the bound glucose using scintillation counting.
# The results of this experiment are expressed graphically in FIG. 1. For each sample, incorporation of radiolabeled glucose is indicated by the solid portion of the bar, and fluorescence is indicated in the open portion of the bar. All values are expressed as per milligram of albumin. […]
# [2] = test system: gelatin (collagen); test: Protein trapping: radioiodinated albumin bound to gelatin (collagen) agarose beads with glucose-6-phosphate; type: biochemical; conditions: agent 200 mN, 400 mN glucose-6-phosphate, two weeks, 37° C.
# Description: To more precisely measure the effect of the agents on the inhibition of protein crosslinking, an assay system was devised to measure the extent of in vitro binding of a soluble protein to an insoluble protein. This assay system mimics the events which occur in tissues in which serum proteins become bound to proteins in extravascular matrix and which lead to accumulation of protein and narrowing of vessel lumina in several other tissues. These events in vivo give rise to kidney disease and atherosclerotic disease, and lead to the pathologies associated with diabetes and aging.
# To measure protein trapping (i.e., binding or accumulation), gelatin (collagen) was coupled to activated agarose beads (Affigel 10, Bio-Red Laboratories) by routine methods. After coupling, all remaining active sites on the beads were quenched by reaction with glycine ethyl ester.
# The beads were incubated for two weeks with bovine serum albumin and 400 mN glucose-6-phosphate, a more reactive form of glucose which forms early glycosylation products with proteins more rapidly than does glucose. […] The bovine serum albumin was radioiodinated so that the amount which became bound to the beads could be measured. […]
# After a two-week incubation of the reaction mixtures at 37° C., the beads were washed extensively with chaotropic agents and the covalently bound radioactivity was determined. […]
# [3] = test system: normal and diabetic rats; test: Aorta advanced glycosylation endproduct content (specific fluorescence of collagen); type: in vivo, rat; conditions: for Advanced glycosylation products: aorta, 25 mg/kg daily i.p., 16 weeks
# Method: (§1) The experiment consisted of giving both normal and diabetic rats daily intraperitoneal doses of the agent aminoguanidine hydrochloride at a dose of 25 mg per kilogram of body weight, for a period of 16 weeks. […] Diabetes was induced prior to drug therapy with a single dose of streptozotocin. Control animals, both diabetic and normal, received no drug.
# (§2) Aorta samples from the same groups of animals described in Example IV above were subjected to analysis for Advanced Glycosylation Endproducts (A.G.E.) content and solubility.
# (§3) Aortas were finely minced with dissecting scissors, delipidated with 5 mL of chloroform: methanol (2:1), washed 5 times with buffer, and divided into aliquots for the following assessments of cross-linking:
# (A) Specific fluorescence of collagen after complete solubilization by proteinase k and pepsin.
# (§4) After treatment for the prescribed period, soluble material was separated from insoluble material by centrifugation (50,000× g, 1 hour), and all fractions were lyophilized and hydrolyzed in 6M HCl for determination of total hydroxyproline.
# [4] = test system: normal and diabetic rats; test: Aorta collagen solubility (acetic acid, CNBr, pepsin); type: in vivo, rat; conditions: 25 mg/kg daily i.p., 16 weeks
# Method: as §1, §2, §3
# (B) Solubility in 0.5M acetic acid was determined after 2 hours of extraction at 25° C. and 24 hours at 4° C.
# (C) Solubility after cyanogen bromide cleavage at 30° C. for 18 hours was determined.
# (D) Solubility after degradation by pepsin (1.0 mg/mL) in 0.1 M acetate buffer, pH 4.1, at 37° C. for 48 hours.
# as §4
# [5] = test system: demineralized bone matrix particles; test: Bone differentiation of AGE-modified demineralized bone matrix implanted in rats; type: in vivo, rat
# Method: In order to assess the possible role of hyperglycemia-induced matrix modifications in this process, demineralized bone matrix particles from 35 week old normal Long-Evans rats were prepared. Matrix is incubated in phosphate buffered saline alone (PBS), PBS containing various sugar precursors of AGE (PBS−G), and PBS with sugars plus the AGE-inhibitor aminoguanidine (PBS−G+AG). After incubation, the matrix is washed and implanted subcutaneously in normal rats. Twelve days after implantation, ^45CaCl2 is injected to determine implant mineralization, and alkaline phosphatase activity is measured to assess osteoblast function. Duplicate specimens are fixed, embedded and stained for histologic evaluation.
# [6] = Irritation on intraperitoneal injection, salt compared with free base; type: in vivo
# [7] = test system: histamine; conditions: in vivo; cited from earlier work
# [8] = test system: diabetic rats; conditions: cited from earlier work
# [9] = test system: diabetic rats; conditions: cited from earlier work; remark: listed apart in the source
# [10] = test system: Laminin B1 mRNA; conditions: diabetic rats; cited from earlier work
smiles,measurement,setting,value
N=C(N)NN [aminoguanidine hydrochloride],formation of fluorescent compounds (advanced glycosylation end products),[1],dramatically reduced by as much as eightfold
same,amount of protein trapping (radiolabeled albumin bound to collagen beads),[2],greatly reduced
same,Advanced glycosylation products,[3]; diabetic rats,4.5 ± 0.1 Specific fluorescence per mg hydroxyproline
same,Advanced glycosylation products,[3]; normal rats,2.8 ± 0.1 Specific fluorescence per mg hydroxyproline
same,level of fluorescent advanced glycosylation products in aortic tissue relative to untreated normal rats,[3]; treated diabetic rats vs untreated normal rats,1.3 times
same,Percent collagen solubilized by 0.5 M acetic acid,[4]; diabetic rats,12.6 ± 0.3%
same,Percent collagen solubilized by CNBr,[4]; diabetic rats,10.6 ± 0.1%
same,Percent collagen solubilized by Pepsin,[4]; diabetic rats,46.1 ± 0.4%
same,Percent collagen solubilized by 0.5 M acetic acid,[4]; normal rats,18.7 ± 0.3%
same,Percent collagen solubilized by CNBr,[4]; normal rats,13.6 ± 0.3%
same,Percent collagen solubilized by Pepsin,[4]; normal rats,52.5 ± 0.2%
same,bone differentiation,"[5]; matrix incubated with AGE precursor plus aminoguanidine, implanted subcutaneously, 12 days",80 % of control
same,matrix AGE content (specific fluorescence),[5]; simultaneous incubation of matrix with AGE precursor and aminoguanidine,reduced fluorescence to normal
same,irritation compared with the parent free base,[6],less irritating
same,levels of histamine,[7],increase levels of histamine
same,kidney glomerular basement membrane protein crosslinking,[8],diminishes kidney glomerular basement membrane protein crosslinking in diabetic rats
same,"increased cross-linking of collagen (tendon fiber breaking time in urea bath, mechanical strength)",[9],prevented
same,diabetes-induced increase in laminin mRNA in the kidney,[10],prevents the diabetes-induced increase in laminin MRNA in the kidney
